Data published in patent US8604040B2 (priority 2010, dated 2013).
Like-named read-outs stand apart in the source and are kept apart here. Marks after values point to notes of the source that are not given here.

Legend:
[1] = log P by HPLC (EEC Directive 79/831 Annex V.A8); format: physicochemical
Phytophthora infestans = format: in vivo; conditions: protective, young tomato plants, active ingredient concentration 500 ppm, evaluation 7 days after inoculation
Plasmopara viticola = test: Plasmopara test (grapevine) / protective; format: in vivo; conditions: young grapevine plants, active ingredient concentration 100 ppm, evaluation 6 days after inoculation
Experimental: Plasmopara Test (Grapevine)/Protective
Solvent: 24.5 parts by weight of acetone
• 24.5 parts by weight of dimethylacetamide Emulsifier: 1 part by weight of alkylaryl polyglycol ether
To prepare an appropriate active ingredient preparation, 1 part by weight of active ingredient is mixed with the stated amounts of solvent and emulsifier, and the concentrate is diluted with water to the desired concentration.
To test for protective efficacy, young plants are sprayed with the active ingredient preparation at the stated application rate. After the spray coating has dried on, the plants are inoculated with an aqueous spore suspension of Plasmopara viticola and then remain in an incubation cabin at approx. 20° C. and 100% relative atmospheric humidity for 1 day. Subsequently, the plants are placed in a greenhouse at approx. 21° C. and approx. 90% air humidity for 4 days. The plants are then moistened and placed into an incubation cabin for 1 day.
Evaluation follows 6 days after the inoculation. 0% means an efficacy which corresponds to that of the control, whereas an efficacy of 100% means that no infection is observed.

[2] = HPLC, pH 2.7, given in the preparation examples, read-out: logP (pH2.7)
[3] = [a] HPLC, acidic range, pH 2.3, 0.1% aqueous phosphoric acid and acetonitrile
[4] = [c] LC-MS, neutral range, pH 7.8, 0.001 molar aqueous ammonium hydrogencarbonate and acetonitrile
[5] = [b] LC-MS, acidic range, pH 2.7, 0.1% aqueous formic acid and acetonitrile
[6] = HPLC (LC-MS), [b] LC-MS, acidic range, pH 2.7, 0.1% aqueous formic acid and acetonitrile, read-out: log P

Compound | efficacy (Phytophthora infestans) | log P [1, 3] | log P [1, 4] | log P [1, 5] | other results
O=C(OC1CCCc2ccccc21)c1cccc(N2CCN(C(=O)Cn3nc(C(F)F)cc3C(F)F)CC2)n1 (centres unmarked) [Example 117, 1,2,3,4-Tetrahydronaphthalen-1-yl 6-(4-{[3,5-bis(difluoromethyl)-1H-pyrazol-1-yl]-acetyl}piperazin-1-yl)pyridine-2-carboxylate] | 93% |  |  |  | chromatographic logP ([1]; HPLC (LC-MS), [c] LC-MS, neutral range, pH 7.8, 0.001 molar aqueous ammonium hydrogencarbonate and acetonitrile, read-out: log P): 4.07; chromatographic logP [1, 2]: 4.02; chromatographic logP ([1]; [a] HPLC, acidic range, pH 2.3, 0.1% aqueous phosphoric acid and acetonitrile, read-out: log P): 4.02; efficacy (Plasmopara viticola): 93%
O=C(OCc1c(F)cccc1F)c1cccc(N2CCN(C(=O)Cn3nc(C(F)F)cc3C(F)F)CC2)n1 [Example 138] | 93% | 3.43^[a]; 3.43^[c] | 3.43^[a]; 3.43^[c] |  | 
Cc1cc(C(F)(F)F)nn1CC(=O)N1CCN(c2cccc(C(=O)OCc3ccccc3F)n2)CC1 [Example 73] | 71% |  | 3.6 | 3.58 | 
O=C(Oc1cccc2ccccc12)c1cccc(N2CCN(C(=O)Cn3nc(C(F)F)cc3C(F)F)CC2)n1 [Example 141] | 71% |  | 3.88^[c] |  | 
Cc1cc(C(F)(F)F)nn1CC(=O)N1CCN(c2cccc(C(=O)OC3C=CCCC3)n2)CC1 (centres unmarked) [Example 68] | 94% |  | 3.7 | 3.67 | 
O=C(Sc1cccs1)c1cccc(C2CCN(C(=O)Cn3nc(C(F)F)cc3C(F)F)CC2)n1 [Example 123] | 93% | 3.76 | 3.77 |  | 
Cc1cc(C(F)(F)F)nn1CC(=O)N1CCN(c2cccc(C(=O)OC3CCCCC3)n2)CC1 [Example 69] | 71% |  |  | 3.96 | 
O=C(OC1CCCCC1)c1cccc(N2CCN(C(=O)Cn3nc(C(F)F)cc3C(F)F)CC2)n1 [Example 140] | 93% | 3.83 | 3.86 |  | efficacy (Plasmopara viticola): 71%
O=C(OCc1ccccc1F)c1cccc(N2CCN(C(=O)Cn3nc(C(F)F)cc3C(F)F)CC2)n1 [Example 137] | 93% | 3.47 | 3.49 |  | 
CN(C(=O)c1cccc(N2CCN(C(=O)Cn3nc(C(F)F)cc3C(F)F)CC2)n1)C1CCCc2ccccc21 (centres unmarked) [Example 143] | 71% | 3.42 | 3.45 |  | 
O=C(OC1C=CCCC1)c1cccc(N2CCN(C(=O)Cn3nc(C(F)F)cc3C(F)F)CC2)n1 (centres unmarked) [Example 142] | 83% | 3.56 | 3.6 |  | 
Cc1cc(C(F)(F)F)nn1CC(=O)N1CCN(c2cccc(C(=O)OC3CCCc4ccccc43)n2)CC1 (centres unmarked) [Example 70] | 97% |  | 4.2 | 4.19 | 
Cc1cc(C(F)(F)F)nn1CC(=O)N1CCN(c2cccc(C(=O)N(C)Cc3ccccc3Br)n2)CC1 [Example 3] | 88% |  | 3.46 | 3.44 | 
O=C(Sc1cccc2ccccc12)c1cccc(N2CCN(C(=O)Cn3nc(C(F)F)cc3C(F)F)CC2)n1 [Example 120] | 93% | 4.25 | 4.28 |  | 
O=C(Oc1cccc2c1CCCC2)c1cccc(N2CCN(C(=O)Cn3nc(C(F)F)cc3C(F)F)CC2)n1 [Example 139] |  | 4.25 | 4.29 |  | 
O=C(OC1CCCCC1)c1cccc(N2CCN(C(=O)Cn3nc(C(F)F)cc3C(F)F)CC2)n1 [Example 119] |  | 4.61 | 4.65 |  | 
C=CCCCCOC(=O)c1cccc(N2CCN(C(=O)Cn3nc(C(F)(F)F)cc3C)CC2)n1 [Example 71] | 76% |  | 3.95 |  | 
Cc1cc(C(F)(F)F)nn1CC(=O)N1CCN(c2cccc(C(=O)SCc3c(F)cccc3F)n2)CC1 [Example 149] |  |  | 4.29 | 4.11 | 

Compound | efficacy (Phytophthora infestans) | log P [1, 3] | log P [1, 4] | log P [1, 5] | other results
CCCCCCCOC(=O)c1cccc(C2CCN(C(=O)Cn3nc(C(F)(F)F)cc3C)CC2)n1 [Example 40] |  |  |  | 4.73^[b] | 
O=C(Cn1nc(C(F)F)cc1C(F)F)N1CCC(c2cccc(C(=O)N3CCOc4ccccc43)n2)CC1 [Example 81] |  |  | 2.97 | 2.98 | 
O=C(OC1CCCCC1)c1cccc(C2CCN(C(=O)Cn3nc(C(F)F)cc3C(F)F)CC2)n1 [Example 99, Cyclohexyl 6-(1-{[3,5-bis(difluoromethyl)-1H-pyrazol-1-yl]acetyl}piperidin-4-yl)-pyridine-2-carboxylate] |  |  |  |  | chromatographic logP [1, 6]: 3.83; chromatographic logP [1, 2]: 3.83
O=C(Oc1ccc2ccccc2c1)c1cccc(C2CCN(C(=O)Cn3nc(C(F)F)cc3C(F)F)CC2)n1 [Example 111] |  |  |  | 3.86^[b] | 
Cc1ccsc1CNC(=O)c1cccc(C2CCN(C(=O)Cn3nc(C(F)(F)F)cc3C)CC2)n1 [Example 27] |  |  | 3.34 | 3.29 | 
O=C(SCc1ccccc1Cl)c1cccc(C2CCN(C(=O)Cn3nc(C(F)F)cc3C(F)F)CC2)n1 [Example 126] |  | 4.44 | 4.49 |  | 
O=C(SCc1ccc(F)cc1)c1cccc(C2CCN(C(=O)Cn3nc(C(F)F)cc3C(F)F)CC2)n1 [Example 128] |  | 4.1 | 4.15 |  | 
Cc1cc(C(F)(F)F)nn1CC(=O)N1CCC(c2cccc(C(=O)NC3CCc4ccccc43)n2)CC1 (racemic) [Example 19] |  |  | 3.56^[b]; 3.56^[c] | 3.56^[b]; 3.56^[c] | 
CCOC(=O)c1cccc(N2CCN(C(=O)OC(C)(C)C)CC2)n1 [tert-Butyl 4-[6-(ethoxycarbonyl)pyridin-2-yl]piperazine-1-carboxylate] |  |  |  |  | chromatographic logP [1, 2]: 3.32
O=C(O)c1cccc(C2CCN(C(=O)Cn3nc(C(F)F)cc3C(F)F)CC2)n1 [Example 135, 6-(1-{[3,5-Bis(difluoromethyl)-1H-pyrazol-1-yl]acetyl}piperidin-4-yl)pyridine-2-carboxylic acid] |  |  |  |  | chromatographic logP [1, 6]: 1.55; chromatographic logP [1, 2]: 1.55
Cc1cc(C(F)(F)F)nn1CC(=O)N1CCN(c2cccc(C(=O)NCc3c(F)cccc3F)n2)CC1 [Example 66] |  |  | 3.12 | 3.11 | 
CN(C(=O)c1cccc(C2CCN(C(=O)Cn3nc(C(F)F)cc3C(F)F)CC2)n1)c1ccccc1Cl [Example 77] |  |  | 3.01^[b]; 3.01^[c] | 3.01^[b]; 3.01^[c] | 
Cc1cc(C(F)(F)F)nn1CC(=O)N1CCC(c2cccc(C(=O)SCc3c(F)cccc3F)n2)CC1 [Example 58] |  |  | 4.29 | 4.27 | 
Cc1cc(C(F)(F)F)nn1CC(=O)N1CCN(c2cccc(C(=O)Oc3cccc4ccccc34)n2)CC1 [Example 75] | 71% |  | 4 | 3.99 | 
Cc1cc(C(F)(F)F)nn1CC(=O)N1CCC(c2cccc(C(=O)OC3CCCc4ccccc43)n2)CC1 (centres unmarked) [Example 35] |  |  |  | 4.15^[b] | 
O=C(OCc1c(F)cccc1F)c1cccc(C2CCN(C(=O)Cn3nc(C(F)F)cc3C(F)F)CC2)n1 [Example 107] |  |  |  | 3.44^[b] | 
Cc1cc(C(F)(F)F)nn1CC(=O)N1CCN(c2cccc(C(=O)OCc3c(F)cc(F)cc3F)n2)CC1 [Example 118] | 93% |  | 3.71 | 3.68 | 
O=C(OCc1ccccc1OC(F)(F)F)c1cccc(C2CCN(C(=O)Cn3nc(C(F)F)cc3C(F)F)CC2)n1 [Example 7] |  |  |  | 3.98^[b] | 
